According to patent US6737383B1, “Herbicidal oxadiazolidines” (priority 1999, dated 2004):

Tests used:
bamyardgrass = test: Test B flood test barnyardgrass; assay type: in vivo, Echinochloa crus-galli
Procedure, shortened: (§1)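 Read-out is a visual response score from 0 (no effect) to 10 (complete control), assigned by comparison with untreated controls. Treatment was applied at the 2-leaf stage, and plants stayed in the greenhouse for twelve to sixteen days before scoring.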

wild oat = test: Test B pre/postemergence wild oat; assay type: in vivo, Avena fatua
Procedure, shortened: (§2)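 Response is a visual 0-to-10 score relative to untreated plants, where 0 means no effect and 10 means complete control, taken twelve to sixteen days after application. Treatments went onto soil at planting and onto foliage of 1- to 4-leaf plants, using a surfactant-containing non-phytotoxic solvent.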

duck salad = test: Test B flood test duck salad; assay type: in vivo, Heteranthera limosa
Procedure, shortened: as §1

purple nutsedge = test: Test B pre/postemergence purple nutsedge; assay type: in vivo, Cyperus rotundus
Procedure, shortened: as §2

pigweed = test: Test B pre/postemergence pigweed; assay type: in vivo, Amaranthus retroflexus
Procedure, shortened: as §2

morningglory = test: Test B pre/postemergence morningglory; assay type: in vivo, Ipomoea hederacea
Procedure, shortened: as §2

rape = test: Test B pre/postemergence rape; assay type: in vivo, Brassica napus
Procedure, shortened: as §2

smallflower flatsedge = test: Test B flood test smallflower flatsedge; assay type: in vivo, Cyperus difformis
Procedure, shortened: as §1

sugar beet = test: Test B pre/postemergence sugar beet; assay type: in vivo, Beta vulgaris
Procedure, shortened: as §2

corn = test: Test B pre/postemergence corn; assay type: in vivo, Zea mays
Procedure, shortened: as §2

rice = test: Test B flood test rice; assay type: in vivo, Oryza sativa
Procedure, shortened: as §1

cocklebur = test: Test B pre/postemergence cocklebur; assay type: in vivo, Xanthium strumarium
Procedure, shortened: as §2

crabgrass = test: Test B pre/postemergence crabgrass; assay type: in vivo, Digitaria sanguinalis
Procedure, shortened: as §2

soybean = test: Test B pre/postemergence soybean; assay type: in vivo, Glycine max
Procedure, shortened: as §2

surinam grass = test: Test B pre/postemergence surinam grass; assay type: in vivo, Brachiaria decumbens
Procedure, shortened: as §2

giant foxtail = test: Test B pre/postemergence giant foxtail; assay type: in vivo, Setaria faberii
Procedure, shortened: as §2

[1] = Rate 62 g/ha, flood test species, Pre-emergence, visual evaluation after twelve to sixteen days
[2] = Rate 125 g/ha, under heading Pre-emergence, flood test species, visual evaluation after twelve to sixteen days
[3] = Rate 250 g/ha, Pre-emergence (flood test species), scale 0 to 10, 0 is no effect, 10 is complete control
[4] = Rate 500 g/ha, Pre-emergence, flood test species, scale 0 to 10 (0 no effect, 10 complete control)
[5] = Postemergence, Rate 250 g/ha, scale 0 to 10
[6] = Postemergence, Rate 500 g/ha, scale of 0 to 10 where 0 is no effect and 10 is complete control
[7] = Preemergence, Rate 62 g/ha, scale of 0 to 10 where 0 is no effect and 10 is complete control
[8] = Preemergence, Rate 125 g/ha, scale of 0 to 10 where 0 is no effect and 10 is complete control
[9] = Preemergence, Rate 250 g/ha, scale 0 to 10, 0 is no effect, 10 is complete control
[10] = Preemergence, Rate 500 g/ha, scale 0 to 10, 0 is no effect, 10 is complete control
[11] = Rate 62 g/ha, Postemergence, scale 0 to 10 (0 no effect, 10 complete control)
[12] = Rate 125 g/ha, Postemergence, scale 0 to 10, 0 is no effect, 10 is complete control

## CCc1nc(C)c(C(C)n2c(=O)on(C(=O)N(c3ccc(F)cc3)C(C)C)c2=O)s1 (stereo not drawn) [Compound 449]
bamyardgrass; [1]
  Plant response rating, Barnyardgrass (0 to 10 scale, 0 is no effect, 10 is complete control): 0
bamyardgrass; [2]
  Barnyardgrass plant response rating (0 to 10 scale, 0 is no effect, 10 is complete control): 0
bamyardgrass; [3]
  Barnyardgrass plant response rating: 0
bamyardgrass; [4]
  Barnyardgrass plant response rating: 0
Wild oat; [5]
  Wild oats plant response rating: 0
Wild oat; [6]
  Wild oats plant response rating: 4
Wild oat; [7]
  Plant response rating, Wild oats: 0
Wild oat; [8]
  Plant response rating, Wild oats: 0
Wild oat; [9]
  Wild oats plant response rating: 0
Wild oat; [10]
  Wild oats plant response rating: 0
Wild oat; [11]
  Wild oats plant response rating: 0
Wild oat; [12]
  Wild oats plant response rating: 0
Duck salad; [1]
  Plant response rating, Ducksalad (0 to 10 scale, 0 is no effect, 10 is complete control): 0
Duck salad; [2]
  Ducksalad plant response rating (0 to 10 scale, 0 is no effect, 10 is complete control): 0
Duck salad; [3]
  Ducksalad plant response rating: 0
Duck salad; [4]
  Ducksalad plant response rating: 0
Purple nutsedge; [5]
  Nutsedge plant response rating: 0
Purple nutsedge; [6]
  Nutsedge plant response rating: 0
Purple nutsedge; [7]
  Plant response rating, Nutsedge: 0
Purple nutsedge; [8]
  Plant response rating, Nutsedge: 0
Purple nutsedge; [9]
  Nutsedge plant response rating: 0
Purple nutsedge; [10]
  Nutsedge plant response rating: 0
Purple nutsedge; [11]
  Nutsedge plant response rating: 0
Purple nutsedge; [12]
  Nutsedge plant response rating: 0
pigweed; [5]
  Redroot pigweed plant response rating: 2
pigweed; [6]
  Redroot pigweed plant response rating: 4
pigweed; [7]
  Plant response rating, Redroot pigweed: 0
pigweed; [8]
  Plant response rating, Redroot pigweed: 0
pigweed; [9]
  Redroot pigweed plant response rating: 0
pigweed; [10]
  Redroot pigweed plant response rating: 3
pigweed; [11]
  Redroot pigweed plant response rating: 0
pigweed; [12]
  Redroot pigweed plant response rating: 0
morningglory; [5]
  Morningglory plant response rating: 5
morningglory; [6]
  Morningglory plant response rating: 5
morningglory; [7]
  Plant response rating, Morningglory: 0
morningglory; [8]
  Plant response rating, Morningglory: 0
morningglory; [9]
  Morningglory plant response rating: 0
morningglory; [10]
  Morningglory plant response rating: 0
morningglory; [11]
  Morningglory plant response rating: 2
morningglory; [12]
  Morningglory plant response rating: 5
rape; [5]
  Rape plant response rating: 0
rape; [6]
  Rape plant response rating: 3
rape; [7]
  Plant response rating, Rape: 0
rape; [8]
  Plant response rating, Rape: 0
rape; [9]
  Rape plant response rating: 0
rape; [10]
  Rape plant response rating: 0
rape; [11]
  Rape plant response rating: 0
rape; [12]
  Rape plant response rating: 0
Smallflower flatsedge; [1]
  Plant response rating, S. Flatsedge (0 to 10 scale, 0 is no effect, 10 is complete control): 0
Smallflower flatsedge; [2]
  S. Flatsedge plant response rating (0 to 10 scale, 0 is no effect, 10 is complete control): 0
Smallflower flatsedge; [3]
  S. Flatsedge plant response rating: 0
Smallflower flatsedge; [4]
  S. Flatsedge plant response rating: 0
Sugar beet; [5]
  Sugarbeets plant response rating: 0
Sugar beet; [6]
  Sugarbeets plant response rating: 3
Sugar beet; [7]
  Plant response rating, Sugarbeets: 0
Sugar beet; [8]
  Plant response rating, Sugarbeets: 0
Sugar beet; [9]
  Sugarbeets plant response rating: 0
Sugar beet; [10]
  Sugarbeets plant response rating: 0
Sugar beet; [11]
  Sugarbeets plant response rating: 0
Sugar beet; [12]
  Sugarbeets plant response rating: 0
corn; [5]
  Corn plant response rating: 0
corn; [6]
  Corn plant response rating: 0
corn; [7]
  Plant response rating, Corn: 0
corn; [8]
  Plant response rating, Corn: 0
corn; [9]
  Corn plant response rating: 0
corn; [10]
  Corn plant response rating: 0
corn; [11]
  Corn plant response rating: 0
corn; [12]
  Corn plant response rating: 0
rice; [1]
  Plant response rating, Rice (0 to 10 scale, 0 is no effect, 10 is complete control): 0
rice; [2]
  Rice plant response rating (0 to 10 scale, 0 is no effect, 10 is complete control): 0
rice; [3]
  Rice plant response rating: 0
rice; [4]
  Rice plant response rating: 0
cocklebur; [5]
  Cocklebur plant response rating: 2
cocklebur; [6]
  Cocklebur plant response rating: 3
cocklebur; [7]
  Plant response rating, Cocklebur: 0
cocklebur; [8]
  Plant response rating, Cocklebur: 0
cocklebur; [9]
  Cocklebur plant response rating: 0
cocklebur; [10]
  Cocklebur plant response rating: 0
cocklebur; [11]
  Cocklebur plant response rating: 0
cocklebur; [12]
  Cocklebur plant response rating: 0
crabgrass; [5]
  Crabgrass plant response rating: 2
crabgrass; [6]
  Crabgrass plant response rating: 2
crabgrass; [7]
  Plant response rating, Crabgrass: 0
crabgrass; [8]
  Plant response rating, Crabgrass: 3
crabgrass; [9]
  Crabgrass plant response rating: 9
crabgrass; [10]
  Crabgrass plant response rating: 9
crabgrass; [11]
  Crabgrass plant response rating: 0
soybean; [5]
  Soybean plant response rating: 2
soybean; [6]
  Soybean plant response rating: 2
soybean; [7]
  Plant response rating, Soybean: 0
soybean; [8]
  Plant response rating, Soybean: 0
soybean; [9]
  Soybean plant response rating: 0
soybean; [10]
  Soybean plant response rating: 2
soybean; [11]
  Soybean plant response rating: 0
soybean; [12]
  Soybean plant response rating: 1
Surinam grass; Postemergence, Rate 250 g/ha, scale 0 to 10, 0 no effect, 10 complete control
  B. signalgrass plant response rating: 0
Surinam grass; [6]
  B. signalgrass plant response rating: 4
Surinam grass; [7]
  Plant response rating, B. signalgrass: 0
Surinam grass; [8]
  Plant response rating, B. signalgrass: 0
Surinam grass; [9]
  B. signalgrass plant response rating: 0
Surinam grass; [10]
  B. signalgrass plant response rating: 0
Surinam grass; [11]
  B. signalgrass plant response rating: 0
Surinam grass; [12]
  B. signalgrass plant response rating: 0
Giant foxtail; [5]
  Giant foxtail plant response rating: 0
Giant foxtail; [6]
  Giant foxtail plant response rating: 3
Giant foxtail; [7]
  Plant response rating, Giant foxtail: 2
Giant foxtail; [8]
  Plant response rating, Giant foxtail: 6
Giant foxtail; [9]
  Giant foxtail plant response rating: 8
Giant foxtail; [10]
  Giant foxtail plant response rating: 10
Giant foxtail; [11]
  Giant foxtail plant response rating: 0
Giant foxtail; [12]
  Giant foxtail plant response rating: 0
